Assay results from patent US20170015555A1, “LONG-TERM PRESERVATION AND NOVEL APPLICATION OF CHLOROUS ACID AQUEOUS SOLUTION FORMULATION” (priority 2013, published 2017).

Tests used:
[1] = test system: Enterohemorrhagic Escherichia coli O111; assay: Permeability of pathogenic microbes when treatment sheets were laid on vomit; type: cell-based; settings: 1000 ppm available chlorine
Source text: (§1) 1) Chlorous acid aqueous solution formulation (see Example 1: Table 11) Treatment sheet (material: 100% cotton): (about 27×40 cm) *Impregnated at a ratio of weight of treatment sheet (g): amount of liquid (ml)=1:3 2) Imitation vomit (hereinafter, referred to as vomit) Miso solution: adjusted to pH 2 with hydrochloric acid 3) Test Microbes that were used E. coli: Escherichia coli IF03927 Staphylococcus aureus: Staphylococcus aureus IF0 12732 Thermoduric Microbes (Bacillus cereus): Bacillus cereus NBRC15305 Microbes of the genus Salmonella: Salmonella Enteritidis IF03313 Enterohemorrhagic Escherichia coli 0157: Escherichia coli 0157 Enterohemorrhagic Escherichia coli 0111: Escherichia coli 0111 Enterohemorrhagic Escherichia coli 026: Escherichia coli O26
(§2) Permeability of pathogenic microbes into a treatment sheet when treating vomit was examined to compare effects of preventing secondary contamination. (1) Imitation vomit is spread in an area about the size of an A4 sheet. (2) 30 agent solution-containing treatment sheets were laid thereon and left standing for 10 minutes. (3) Treatment sheets were removed one at a time from the top. After diluting with saline, the sample was spread in a petri dish and cultured.

[2] = test system: Enterohemorrhagic Escherichia coli O157; assay: as above; type: cell-based; settings: 1000 ppm available chlorine
Source text: as §1, §2

[3] = Deodorizing effect (chemical deodorization, gas detector tube); settings: spray 20 cc
Source text: In order to evaluate tests on deodorizing effects, the present Example examined deodorizing effects by using standards regarding air freshening and deodorization ([II]-2 Method of Testing Deodorizing Efficacy (Chemical Deodorization)) set forth by the Air Fresheners and Deodorizers Conference (http://www.houkou.gr.jp/) as the efficacy testing method, which is adopted by Japan Food Research Laboratories.
Ammonium odor: Ammonium Standard Solution II (Wako Pure Chemical Industries, for testing malodorous substances) Amine odor: methyl mercaptan standard solution (Wako Pure Chemical Industries, for testing malodorous substances) Sulfur odor: hydrogen sulfide (self-made, used hydrogen sulfide that was generated by adding sulfuric acid to zinc sulfide)
Gas detector tube made by GASTEC Corporation Ammonium odor: Detector tube ammonium 3 L made by GASTEC Corporation Amino odor: Detector tube methyl mercaptan 71 made by GASTEC Corporation Sulfur odor: Detector tube hydrogen sulfide 4 LL made by GASTEC Corporation
Tests were conducted in compliance with ([II]-2 Method of Testing Deodorizing Efficacy (Chemical Deodorization)) set forth by the Air Fresheners and Deodorizers Conference.
The tests were carried out by static culture method, using a commercially-available airbag with a spigot having a volume of about 10 L as test containers. The volume of airbags was appropriately changed in accordance with the size of the product.
The bags were filled with odorless air. Malodor concentrations were measured over time at room temperature (about 20° C.). (3 points or higher, detection tube method (FIG. 16), measured by an instrument analysis method or olfactory measurement method. When decrease in the blank was observed, the decrease was suitably corrected. When measuring by olfactory measuring method, the airbag spigot was opened for direct sniffing, or gas was transferred to an odor bag while wearing a mask to perform olfactory measurement in an autonomic respiration form. Measured air was not returned to the source).

## OCl [Sodium Hypochlorite, sodium hypochlorite]
[1]; Day 0 at 25° C.
  Microbe count, 1 sheet laid on imitation vomit: <10
  Microbe count, 2 sheets laid on imitation vomit: <10
  Microbe count, 3 sheets laid on imitation vomit: <10
  Microbe count, 4 sheets laid on imitation vomit: <10
  Microbe count, 5 sheets laid on imitation vomit: <10
  Microbe count, 6 sheets laid on imitation vomit: <10
  Microbe count, 8 sheets laid on imitation vomit: <10
  Microbe count, 10 sheets laid on imitation vomit: <10
  Microbe count, 20 sheets laid on imitation vomit: <10
  Microbe count, 30 sheets laid on imitation vomit: <10
[1]; Day 7 at 25° C.
  Microbe count, 1 sheet laid on imitation vomit: >10^6
  Microbe count, 2 sheets laid on imitation vomit: >10^6
  Microbe count, 3 sheets laid on imitation vomit: >10^6
  Microbe count, 4 sheets laid on imitation vomit: >10^6
  Microbe count, 5 sheets laid on imitation vomit: >10^6
  Microbe count, 6 sheets laid on imitation vomit: >10^6
  Microbe count, 8 sheets laid on imitation vomit: >10^6
  Microbe count, 10 sheets laid on imitation vomit: >10^6
  Microbe count, 20 sheets laid on imitation vomit: >10^6
  Microbe count, 30 sheets laid on imitation vomit: >10^6
[2]; Day 0 at 25° C.
  Microbe count, 1 sheet laid on imitation vomit: <10
  Microbe count, 2 sheets laid on imitation vomit: <10
  Microbe count, 3 sheets laid on imitation vomit: <10
  Microbe count, 4 sheets laid on imitation vomit: <10
  Microbe count, 5 sheets laid on imitation vomit: <10
  Microbe count, 6 sheets laid on imitation vomit: <10
  Microbe count, 8 sheets laid on imitation vomit: <10
  Microbe count, 10 sheets laid on imitation vomit: <10
  Microbe count, 20 sheets laid on imitation vomit: <10
  Microbe count, 30 sheets laid on imitation vomit: <10
[2]; Day 7 at 25° C.
  Microbe count, 1 sheet laid on imitation vomit: >10^6
  Microbe count, 2 sheets laid on imitation vomit: >10^6
  Microbe count, 3 sheets laid on imitation vomit: >10^6
  Microbe count, 4 sheets laid on imitation vomit: >10^6
  Microbe count, 5 sheets laid on imitation vomit: >10^6
  Microbe count, 6 sheets laid on imitation vomit: >10^6
  Microbe count, 8 sheets laid on imitation vomit: 1.1 × 10^4
  Microbe count, 10 sheets laid on imitation vomit: 7.1 × 10^2
  Microbe count, 20 sheets laid on imitation vomit: <10
  Microbe count, 30 sheets laid on imitation vomit: <10
[3]; Table 57, 0 h after spraying
  residual concentration of hydrogen sulfide, after correction (Control = 100): 0
  residual concentration of hydrogen sulfide, before correction: 0 ppm
[3]; Table 57, 3 h after spraying
  residual concentration of hydrogen sulfide, after correction (Control = 100): 0
  residual concentration of hydrogen sulfide, before correction: 0 ppm
[3]; Table 57, 6 h after spraying
  residual concentration of hydrogen sulfide, after correction (Control = 100): 0
  residual concentration of hydrogen sulfide, before correction: 0 ppm
[3]; Table 57, 9 h after spraying
  residual concentration of hydrogen sulfide, after correction (Control = 100): 0
  residual concentration of hydrogen sulfide, before correction: 0 ppm
[3]; Table 57, 24 h after spraying
  residual concentration of hydrogen sulfide, after correction (Control = 100): 0
  residual concentration of hydrogen sulfide, before correction: 0 ppm
[3]; Table 57, before spraying
  residual concentration of hydrogen sulfide, after correction (Control = 100): 100
  residual concentration of hydrogen sulfide, before correction: 40 ppm
[3]; Table 58, 0 h after spraying
  residual concentration of hydrogen sulfide, after correction (Control = 100): 0
  residual concentration of hydrogen sulfide, before correction: 0 ppm
[3]; Table 58, 3 h after spraying
  residual concentration of hydrogen sulfide, after correction (Control = 100): 0
  residual concentration of hydrogen sulfide, before correction: 0 ppm
[3]; Table 58, 6 h after spraying
  residual concentration of hydrogen sulfide, after correction (Control = 100): 0
  residual concentration of hydrogen sulfide, before correction: 0 ppm
[3]; Table 58, 9 h after spraying
  residual concentration of hydrogen sulfide, after correction (Control = 100): 0
  residual concentration of hydrogen sulfide, before correction: 0 ppm
[3]; Table 58, 24 h after spraying
  residual concentration of hydrogen sulfide, after correction (Control = 100): 0
  residual concentration of hydrogen sulfide, before correction: 0 ppm
[3]; Table 58, before spraying
  residual concentration of hydrogen sulfide, after correction (Control = 100): 100
  residual concentration of hydrogen sulfide, before correction: 50 ppm
